Laboratory results from patent US9409939B2, “Quantification method for remaining liver function and novel liver receptor imaging agent” (INSTITUTE OF NUCLEAR ENERGY RESEARCH ATOMIC ENERGY COUNCIL, …, priority 2009, dated 2016).
pIC50: −log10 of the molar value.

What was measured:
[1] = system: normal rat cells (Clone 9); experiment: MTT cell toxicity test, Clone 9; assay type: cell-based; details: Clone 9, concentration 10^3 times of 0.01 μM, 24 hr, 48 hr
Experimental: (§1) MTT, i.e. 3-(4,5-cimethyl-thiazol-2-yl)-2,5-diphenyl tetrazolium bromide, can be metabolized by succinate dehydrogenase of cell mitochondria into blue MTT formazan, and thus is widely used to detect cell viability. The experimental method includes: adding 0, 0.001 μM, 0.01 μM, 0.1 μM, 1 μM, and 10 μM hexa-lactoside into 1×10^6 normal rat cells (Clone 9) and normal mouse cells (FL83B), respectively; after culturing for 24 hr, 48 hr, adding MTT; and 4 hr later, dissolving the cells with DMSO. The blue MTT formazan is soluble in the solution. The absorption of the solution at 570 nm is detected. With the absorption at 570 nm without adding hexa-lactoside as 100% of cell viability, the experimental groups with hexa-lactoside added are compared with the normal group without adding hexa-lactoside, to get the cell viability of the experimental groups. FIG. 10 is a comparison of cell viability of hexa-lactoside in normal rat cell (Clone 9), and FIG. 11 is a comparison of cell viability of hexa-lactoside in normal mouse cell (FL83B), in which the concentration used presently is 0.01 μM.

[2] = system: normal mouse cells (FL83B); experiment: MTT cell toxicity test, FL83B; assay type: cell-based; details: concentration 10^3 times of 0.01 μM, 24 hr, 48 hr
Experimental: as §1

ASGPR = biological target: T1, ASGPR (Mus musculus, UniProt P24721+P34927); experiment: Competition with Eu-ASOR for binding to murine hepatocyte (time-resolved fluorescence)
T1 construct: host or cells: murine hepatocytes (purchased, plated in 24-well plates)
T1 sequence (P34927 1-284): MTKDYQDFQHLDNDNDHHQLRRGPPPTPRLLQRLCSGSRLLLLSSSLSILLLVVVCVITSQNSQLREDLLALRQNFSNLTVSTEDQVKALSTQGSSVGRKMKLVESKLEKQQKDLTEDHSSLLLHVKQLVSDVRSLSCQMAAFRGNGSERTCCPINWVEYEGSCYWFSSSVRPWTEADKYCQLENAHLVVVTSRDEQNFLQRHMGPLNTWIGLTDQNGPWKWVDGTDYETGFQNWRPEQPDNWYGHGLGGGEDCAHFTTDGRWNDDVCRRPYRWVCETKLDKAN
T1 sequence (P24721 1-301): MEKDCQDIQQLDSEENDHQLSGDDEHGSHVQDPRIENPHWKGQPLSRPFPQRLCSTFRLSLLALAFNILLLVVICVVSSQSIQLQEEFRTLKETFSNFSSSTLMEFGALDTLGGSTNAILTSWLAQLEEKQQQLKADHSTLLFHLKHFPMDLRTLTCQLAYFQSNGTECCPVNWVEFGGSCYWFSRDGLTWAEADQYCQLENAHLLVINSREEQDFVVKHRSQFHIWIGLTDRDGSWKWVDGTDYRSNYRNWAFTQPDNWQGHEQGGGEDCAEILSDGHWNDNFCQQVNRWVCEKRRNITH
Experimental: The murine hepatocyte (from Lonza Biotechnology Company, Maryland) is plated in a 24-well plate in advance, and the reaction occurs in each well, into which (i) Eu-ASOR 10 nM (ii) hepatocyte basic medium with 5 mM calcium chloride, and (iii) five different concentrations of saccharide chain peptide of 1 uM-0.8 nM are added. After culturing with shaking for 1 hr, the substance that has not been bound to hepatocyte is removed by washing with the hepatocyte basic medium containing calcium chloride.
Time-resolved fluorescence spectroscopy is preformed, that is, an enhancement solution (15 uM β-naphthoyl trifluoroacetone, 50 uM tri-n-octyl-phosphine oxide, 0.1% triton X-100 in 0.1M acetic acid, titrated with potassium hydrogen phthalate to pH 3.2) is added. The enhancement solution reacts with Eu^3+ to form a Eu chelate, which can emit a light of 615 nm when being excited at 340 nm. With the logarithm of the concentration of saccharide chain peptide as X axis, the emitted fluorescence value as Y axis, the fluorescence value without adding glycopeptide being set as 100%, the IC50 of each saccharide chain peptide can be calculated accordingly.

NCCCCCC(=O)N[C@@H](CC(=O)NCCCC[C@@H](C(=O)NCCCCCCOC1O[C@H](CO)[C@@H](O[C@@H]2O[C@H](CO)[C@H](O)[C@H](O)[C@H]2O)[C@H](O)[C@H]1O)N(CC(=O)NCCCCCCOC1O[C@H](CO)[C@@H](O[C@@H]2O[C@H](CO)[C@H](O)[C@H](O)[C@H]2O)[C@H](O)[C@H]1O)CC(=O)NCCCCCCOC1O[C@H](CO)[C@@H](O[C@@H]2O[C@H](CO)[C@H](O)[C@H](O)[C@H]2O)[C@H](O)[C@H]1O)C(=O)NCCCC[C@@H](C(=O)NCCCCCCOC1O[C@H](CO)[C@@H](O[C@@H]2O[C@H](CO)[C@H](O)[C@H](O)[C@H]2O)[C@H](O)[C@H]1O)N(CC(=O)NCCCCCCOC1O[C@H](CO)[C@@H](O[C@@H]2O[C@H](CO)[C@H](O)[C@H](O)[C@H]2O)[C@H](O)[C@H]1O)CC(=O)NCCCCCCOC1O[C@H](CO)[C@@H](O[C@@H]2O[C@H](CO)[C@H](O)[C@H](O)[C@H]2O)[C@H](O)[C@H]1O (stereo partly shown) [AHA-Asp[DCM-Lys(ahLac)3]2, AHA-Asp[DCM-Lys(ah-Lac)3]2]
cell viability (MTT) [1]: 100% | cell viability (MTT) [2]: 100%

CC(=O)N[C@H]1[C@H](OCCCCCCNC(=O)CNC(=O)CN(CC(=O)NCC(=O)NCCCCCCO[C@@H]2O[C@H](CO)[C@H](O)[C@H](O)[C@H]2NC(C)=O)[C@@H](CCCCN)C(=O)NCC(=O)NCCCCCCO[C@@H]2O[C@H](CO)[C@H](O)[C@H](O)[C@H]2NC(C)=O)O[C@H](CO)[C@H](O)[C@@H]1O [DCM-Lys(GahGalNAc)3, DCM-Lys(Gah-GalNAc)3]
binding to ASGPR relative to YEE or YDD (ASGPR; compared with YEE or YDD): 10 times

CC(=O)N[C@H]1[C@H](OCCCCCCNC(=O)CNC(=O)C[C@H](NC(=O)[C@H](CC(=O)NCC(=O)NCCCCCCO[C@@H]2O[C@H](CO)[C@H](O)[C@H](O)[C@H]2NC(C)=O)NC(=O)[C@@H](N)Cc2ccc(O)cc2)C(=O)NCC(=O)NCCCCCCO[C@@H]2O[C@H](CO)[C@H](O)[C@H](O)[C@H]2NC(C)=O)O[C@H](CO)[C@H](O)[C@@H]1O [YDD(GahGalNAc)3, reference compound]
pIC50 (ASGPR): 8.00
